# Assay results: patent US12637454B2, “Heterocyclic monoacylglycerol lipase (MAGL) inhibitors” (Hoffmann-La Roche Inc., priority 2019, dated 2026)
# Target: T1, MAGL (Homo sapiens, UniProt Q99685)
# T1 sequence (Q99685 1-303): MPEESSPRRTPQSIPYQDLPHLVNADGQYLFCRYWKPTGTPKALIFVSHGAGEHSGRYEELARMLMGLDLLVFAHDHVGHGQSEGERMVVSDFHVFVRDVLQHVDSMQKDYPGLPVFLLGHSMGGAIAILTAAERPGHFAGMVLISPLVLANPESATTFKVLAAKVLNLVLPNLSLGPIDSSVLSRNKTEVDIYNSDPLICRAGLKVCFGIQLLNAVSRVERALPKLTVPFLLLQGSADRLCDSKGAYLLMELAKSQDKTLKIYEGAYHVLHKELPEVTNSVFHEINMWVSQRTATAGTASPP
# Assay: 2-AG assay (MAGL inhibitory activity, hydrolysis of 2-arachidonoylglycerol followed by mass spectrometry)
# Type: biochemical
# Details: 50 pM MAGL, 8 μM 2-arachidonoylglycerol, 15 min preincubation, 30 min incubation at RT
# Experimental: Compounds were profiled for MAGL inhibitory activity by determining the enzymatic activity by following the hydrolysis of the natural substrate 2-arachidonoylglycerol (2-AG) resulting in arachidonic acid, which can be followed by mass spectrometry. This assay is hereinafter abbreviated “2-AG assay”.
# The 2-AG assay was carried out in 384 well assay plates (PP, Greiner Cat #784201) in a total volume of 20 μL. Compound dilutions were made in 100% DMSO (VWR Chemicals 23500.297) in a polypropylene plate in 3-fold dilution steps to give a final concentration range in the assay from 12.5 μM to 0.8 pM. 0.25 μL compound dilutions (100% DMSO) were added to 9 μL MAGL in assay buffer (50 mM TRIS (GIBCO, 15567-027), 1 mM EDTA (Fluka, 03690-100 mL), 0.01% (v/v) Tween. After shaking, the plate was incubated for 15 min at RT. To start the reaction, 10 μL 2-arachidonoylglycerol in assay buffer was added. The final concentrations in the assay was 50 pM MAGL and 8 μM 2-arachidonoylglyerol. After shaking and 30 min incubation at RT, the reaction was quenched by the addition of […] of ACN containing 4 μM of d8-arachidonic acid. The amount of arachidonic acid was traced by an online SPE system (Agilent Rapidfire) coupled to a triple quadrupole mass spectrometer (Agilent 6460). A C18 SPE cartridge (G9205A) was used in an ACN/water liquid setup. The mass spectrometer was operated in negative electrospray mode following the mass transitions 303.1→259.1 for arachidonic acid and 311.1→267.0 for d8-arachidonic acid. The activity of the compounds was calculated based on the ratio of intensities [arachidonic acid/d8-arachidonic acid].
row,Compound,IC50
1,"COc1cccc(C(=O)N2CCN3C[C@](O)(c4ccc(F)c(Cl)c4)CC[C@H]3C2)c1Cl [Example 2, [(7R,9aS)-7-(3-chloro-4-fluorophenyl)-7-hydroxy-3,4,6,8,9,9a-hexahydro-1H-pyrido[1,2-a]pyrazin-2-yl]-(2-chloro-3-methoxyphenyl)methanone]",0.0188 µM
2,"O=C(c1cccc(-c2ccn[nH]2)c1Cl)N1CCN2C[C@@](O)(c3ccc(Cl)cc3)CC[C@@H]2C1 [Example 3, [(7S,9aR)-7-(4-chlorophenyl)-7-hydroxy-3,4,6,8,9,9a-hexahydro-1H-pyrido[1,2-a]pyrazin-2-yl]-[2-chloro-3-(1H-pyrazol-5-yl)phenyl]methanone]",0.00431 µM
3,"O=C(c1cccc(-c2ccn[nH]2)c1Cl)N1CCN2C[C@](O)(c3ccc(Cl)cc3)CC[C@H]2C1 [Example 4, [(7R,9aS)-7-(4-chlorophenyl)-7-hydroxy-3,4,6,8,9,9a-hexahydro-1H-pyrido[1,2-a]pyrazin-2-yl]-[2-chloro-3-(1H-pyrazol-5-yl)phenyl]methanone]",0.0763 µM
4,"O=C(c1cccc(-c2c[nH]nc2F)c1Cl)N1CCN2C[C@@](O)(c3ccc(Cl)cc3)CC[C@@H]2C1 [Example 5, [(7S,9aR)-7-(4-chlorophenyl)-7-hydroxy-3,4,6,8,9,9a-hexahydro-1H-pyrido[1,2-a]pyrazin-2-yl]-[2-chloro-3-(3-fluoro-1H-pyrazol-4-yl)phenyl]methanone]",0.00195 µM
5,"O=C(c1cccc(-c2c[nH]nc2F)c1Cl)N1CCN2C[C@](O)(c3ccc(Cl)cc3)CC[C@H]2C1 [Example 6, [(7R,9aS)-7-(4-chloropheny1)-7-hydroxy-3,4,6,8,9,9a-hexahydro-1H-pyrido[1,2-a]pyrazin-2-yl]-[2-chloro-3-(3-fluoro-1H-pyrazol-4-yl)phenyl]methanone]",0.0172 µM
6,"COc1ccc(C(=O)N2CCN3C[C@@](O)(c4ccc(Cl)cc4)CC[C@@H]3C2)c(Cl)n1 [Example 7, [(7S,9aR)-7-(4-chlorophenyl)-7-hydroxy-3,4,6,8,9,9a-hexahydro-1H-pyrido[1,2-a]pyrazin-2-yl]-(2-chloro-6-methoxypyridin-3-yl)methanone]",0.398 µM
7,"Cc1nc(N)ccc1C(=O)N1CCN2C[C@@](O)(c3ccc(Cl)cc3)CC[C@@H]2C1 [Example 8, [(7S,9aR)-7-(4-chlorophenyl)-7-hydroxy-3,4,6,8,9,9a-hexahydro-1H-pyrido[1,2-a]pyrazin-2-yl]-(6-amino-2-methylpyridin-3-yl)methanone]",2.96 µM
8,"O=C(c1cccc(N2CC(O)C2)c1Cl)N1CCN2C[C@@](O)(c3ccc(Cl)cc3)CC[C@@H]2C1 [Example 9, [(7S,9aR)-7-(4-chlorophenyl)-7-hydroxy-3,4,6,8,9,9a-hexahydro-1H-pyrido[1,2-a]pyrazin-2-yl]-[2-chloro-3-(3-hydroxyazetidin-1-yl)phenyl]methanone]",0.0162 µM
9,O=C(c1cccc(N2CC(O)C2)c1F)N1CCN2C[C@@](O)(c3ccc(Cl)cc3)CC[C@@H]2C1 [Example 10],0.0582 µM
10,"Cn1c(Cl)c(C(=O)N2CCN3C[C@](O)(c4ccc(Cl)cc4)CC[C@H]3C2)ccc1=O [Example 11, 5-[(7R,9aS)-7-(4-chlorophenyl)-7-hydroxy-3,4,6,8,9,9a-hexahydro-1H-pyrido[1,2-a]pyrazine-2-carbonyl]-6-chloro-l-methylpyridin-2-one]",0.775 µM
11,"Cn1c(Cl)c(C(=O)N2CCN3C[C@@](O)(c4ccc(Cl)cc4)CC[C@@H]3C2)ccc1=O [Example 12, 5-[(7S,9aR)-7-(4-chlorophenyl)-7-hydroxy-3,4,6,8,9,9a-hexahydro-1H-pyrido[1,2-a]pyrazine-2-carbonyl]-6-chloro-l-methylpyridin-2-one]",4.46 µM
12,"O=C(c1cccc(N2CCOC2=O)c1Cl)N1CCN2C[C@@](O)(c3ccc(Cl)cc3)CC[C@@H]2C1 [Example 13, 3-[3-[(7S,9aR)-7-(4-chlorophenyl)-7-hydroxy-3,4,6,8,9,9a-hexahydro-1H-pyrido[1,2-a]pyrazine-2-carbonyl]-2-chlorophenyl]-1,3-oxazolidin-2-one]",1.19 µM
